In patent publication US20020110602A1, “Method and apparatus for washing produce” (priority 2000, published 2002):
Values joined by “and” are separate entries in the source; they are usually repeats but may differ in a detail not shown here. Identical values can stand only once. Like-named read-outs stand apart in the source and are kept apart here.

Assays:
[1] = test system: P. digitatum; assay: Immersion washing of oranges with various solutions, decay; format: in vivo, Penicillium digitatum
[2] = test system: P. digitatum isolate M6R; conditions: lemons, 1 or 3% wt/vol, 200 micrograms/ml free NaOCl, pH 8.3, controls 97%
[3] = test system: P. digitatum isolate M6R; conditions: oranges, 1 or 3% wt/vol, 200 micrograms/ml free NaOCl, pH 8.3, controls 97%
[4] = test system: P. digitatum; assay: Effect of pH and bicarbonate concentration on decay of oranges; format: in vivo, Penicillium digitatum
[5] = test system: Green Mold; conditions: 35 seconds, 2 weeks at 50° F.
[6] = test system: sour rot (Geotrichum Candidum); assay: Effect of treatments on sour rot decay of lemons; format: in vivo
[7] = test system: Green Mold; conditions: 35 seconds, 2 weeks at 50° F.; remark: listed apart in the source
[8] = test system: Green Mold; assay: Washing of oranges inoculated with Green Mold, decay; format: in vivo, Penicillium digitatum; conditions: oranges infected by green mold; four groups of 25; pressure washer, or soak tank for soda ash, sodium bicarbonate
[9] = test system: P. digitatum; conditions: fresh oranges and lemons; pressure washing; FIG. 6
[10] = test system: P. digitatum (M6R strain); assay: High pressure washing of inoculated navel oranges with sodium hypochlorite solution, no bicarbonate; format: in vivo, Penicillium digitatum; conditions: 2 weeks at 55° F.; for % Fruit Decay (Average): navel oranges; for Total Decay: number of decayed navel oranges; for No decay: number of navel oranges without decay
[11] = test system: P. digitatum; conditions: lemons inoculated 48 hours before treatment; immersion; cited from earlier work
[12] = test system: P. digitatum (M6R strain); assay: SOPP, sodium bicarbonate & chlorine treatment, navel orange decay control; format: in vivo, Penicillium digitatum
[13] = first set of data, four groups of 25
[14] = second set of data, dipping, pH 11.4, alone
[15] = second set of data, four groups of 25
[16] = high pressure (about 300 psi) wash
[17] = low pressure (about 95 psi) wash
[18] = second set of data, dipping, pH 7.5, alone
[19] = pressure washer (100 psi), navel oranges, replicates R1-R4, 2 weeks at 55° F., listed as Chlorine @ 200 ppm

## O=C([O-])O.[Na+] [BCB 0.25% alone, sodium bicarbonate]
[1]; in vivo
  Mean Decay (%): 46.000%

## O=C([O-])O.[Na+] [sodium bicarbonate]
[2]; HPSW at 2150 kPa (320 psi)
  mean decay: 17%
[2]; tank treatment 35 seconds
  mean incidence of decay: 22%
[3]; HPSW at 2150 kPa (320 psi)
  mean decay: 20%
[3]; tank treatment 35 seconds
  mean incidence of decay: 19%

## O=C([O-])[O-].[Na+].[Na+] [0.3 M soda ash, pH 11.4, sodium carbonate]
[4]; [13]
  Mean Decay (%): 10.000%
[4]; [14]
  Mean Decay (%): 10.000%

## O=C([O-])[O-].[Na+].[Na+] [Soda ash 3% w/v at 80° F., sodium carbonate]
[5]; no pressure washing, dip
  Decay (%) Lemons: 6.8%
[6]; [13]
  Mean Decay (%): 10.638%
[6]; [15]
  Mean Decay (%): 10.856%
[7]; no pressure washing, dip
  Decay (%) Oranges: 13.0%
[8]
  Mean Decay (%): 11.000%

## O=C([O-])O.[Na+] [BCB 3% alone, sodium bicarbonate]
[1]; in vivo
  Mean Decay (%): 7.000%
[9]
  decay control: ~100%

## [O][Cl+][O-] [Oxine 200 ppm alone at 80° F., chlorine dioxide]
[6]; first set of data, four groups of 25, listed as Ozine 200 ppm, alone 80° F.
  Mean Decay (%): 10.818%
[6]; second set of data, four groups of 25, listed as Oxine 200 ppm 80° F.
  Mean Decay (%): 10.878%
[8]
  Mean Decay (%): 18.000%

## [O][Cl+][O-] [Oxine 75 ppm alone at 80° F., chlorine dioxide]
[6]; first set of data, four groups of 25, 80° F.
  Mean Decay (%): 22.338%
[6]; second set of data, four groups of 25, listed as Oxine 75 ppm 80° F.
  Mean Decay (%): 22.358%
[8]
  Mean Decay (%): 14.000%

## O=C([O-])[O-].[Na+].[Na+] [0.15 M soda ash, pH 11.4, sodium carbonate]
[4]; [13]
  Mean Decay (%): 31.000%
[4]; [14]
  Mean Decay (%): 31.000%

## [Na+].[O-]Cl [High Cl, sodium hypochlorite]
[10]; [16]
  % Fruit Decay (Average): 97.5%
  Total Decay: 197
  No decay: 5
[10]; [17]
  % Fruit Decay (Average): 98%
  Total Decay: 196
  No decay: 4

## O=C([O-])O.[Na+] [0.15 M sodium bicarbonate, pH 7.5, sodium bicarbonate]
[4]; [13]
  Mean Decay (%): 65.000%
[4]; [18]
  Mean Decay (%): 65.000%

## O=C([O-])O.[Na+] [0.3 M sodium bicarbonate, pH 8.4, sodium bicarbonate]
[4]; [13]
  Mean Decay (%): 43.000%
[4]; second set of data, dipping, pH 8.4, alone
  Mean Decay (%): 43.000%

## [Na+].[O-]Cl [Low Cl, sodium hypochlorite]
[10]; [16]
  % Fruit Decay (Average): 98.5%
  Total Decay: 201
  No decay: 3
[10]; [17]
  % Fruit Decay (Average): 99.5%
  Total Decay: 199
  No decay: 1

## OCl [HOCl pH 8.4, HOCl]
[4]; [13]
  Mean Decay (%): 99.000%
[4]; second set of data, dipping, listed as HOCl pH 8.4 alone
  Mean Decay (%): 99.000%

## [O][Cl+][O-] [Oxine 3-6 ppm alone at 80° F., chlorine dioxide]
[6]; first set of data, four groups of 25, listed as Oxine 3-8 ppm, 80° F.
  Mean Decay (%): 21.710%
[6]; second set of data, four groups of 25, listed as Oxine 5-8 ppm 80° F.
  Mean Decay (%): 21.710%
[8]
  Mean Decay (%): 14.000%

## O=C([O-])[O-].[Na+].[Na+] [sodium carbonate]
[11]
  reduction of incidence of infections from wounds: more than 90%

## O=C([O-])O.[Na+] [BCB 1% alone, sodium bicarbonate]
[1]; in vivo
  Mean Decay (%): 13.000%

## CC/C=C\CC1C(=O)CCC1CC(=O)OC (stereo not shown) [Methyl jasmenate, high rate, Methyl jasmenate]
[4]; [13]
  Mean Decay (%): 100.000%
[4]; second set of data, dipping
  Mean Decay (%): 100.000%

## O=C([O-])O.[Na+] [BCB 0.5% alone, sodium bicarbonate]
[1]; in vivo
  Mean Decay (%): 27.000%
[5]; high pressure washing
  Decay (%) Lemons: 55.3%
[5]; low pressure washing
  Decay (%) Lemons: 66.2%
[5]; no pressure washing, dip
  Decay (%) Lemons: 45.1%
[7]; high pressure washing
  Decay (%) Oranges: 76.3%
[7]; low pressure washing
  Decay (%) Oranges: 82.7%
[7]; no pressure washing, dip
  Decay (%) Oranges: 56.9%

## [Na+].[O-]Cl [NaOCl 200 ppm pH 7.5 alone at 80° F., sodium hypochlorite]
[6]; [13]
  Mean Decay (%): 18.112%
[6]; [15]
  Mean Decay (%): 18.112%
[8]
  Mean Decay (%): 17.000%

## OCl [HOCl pH 11.4, HOCl]
[4]; [13]
  Mean Decay (%): 95.000%
[4]; [14]
  Mean Decay (%): 95.000%

## [Na+].[O-]Cl [HOCl 200 ppm alone, sodium hypochlorite]
[1]; immersion, oranges, mean of four samples of 25
  Mean Decay (%): 88.000%
[12]; 100 psi wash, navel oranges (Table 10)
  Mean Decay (%): 99.3% (a)
[12]; 100 psi wash, navel oranges, relative to inoculated control
  Decay Control (%): 0.0%
[12]; pressure washer (100 psi), navel oranges, mean of four replicates
  % Decay, Mean %: 99.3%
[12]; [19]
  # Decay: 105 and 104 and 95 and 98
  # Healthy: 0 and 1 (3×)
  % Decay: 100.0% and 99.0% (3×)

## OCl [HOCl pH 7.5, HOCl]
[4]; [13]
  Mean Decay (%): 99.000%
[4]; second set of data, dipping, listed as HOCl pH 7.5 alone
  Mean Decay (%): 99.000%

## O=C([O-])O.[Na+] [0.3 M sodium bicarbonate, pH 7.5, sodium bicarbonate]
[4]; [13]
  Mean Decay (%): 41.000%
[4]; [18]
  Mean Decay (%): 41.000%
